Source: patent publication US20080269313A1, “Prolyl Oligopeptidase Inhibitors Ameliorating Recovery From Brain Trauma” (ORION CORPORATION, priority 2003, published 2008)

Columns and labels:
[1] = system: experimental models of senile dementia; conditions: Toide et al. 1997; cited from earlier work
[2] = system: male rats with the focal forebrain ischemia; test: limb-placing test after focal forebrain ischemia (middle cerebral artery occlusion 90 min); assay type: in vivo, rat; conditions: for difference in limb-placing test between JTP-4819 and control groups: ischemic rats vs vehicle control
Procedure: The effects of JTP-4819 on the recovery in the use of limbs assessed by the limb placing task in male rats with the focal forebrain ischemia.
The experiment was carried out on male Spraque-Dawley rats (about 200 g), bred in B&K, Sweden. The rats were allowed to acclimatized for one week before the start of teaching of behavioural testing and subsequent operation (Table 1). During acclimatization period, the rats were housed in solid bottom Macrolon type III cages with stainless steel mesh lids (at maximum five rats in each cage). The rats had free access to standard certified pelleted food (RM1 Maintenance Expanded SQC; Special Diet Services, Essex, UK) and water. After operation, the rats were housed singly in a Macrolon cage. Some food pellets were put into a cage in order to enable to their feeding. On the second post-operative day and thereafter, the rats were housed (maximum 10 rats in one cage) in the enriched environment (Enriched rat cage system, 03-RS-R, Scanbur A/S, Lellinge, Denmark) where the floor area of one cage was 4250 cm^2. […] Tap water and pelleted food were freely available.
Anesthesia was initiated with 4-5% halothane (30% oxygen, 65% nitrous oxide) and maintained throughout the operation with 0.5-1.5% halothane delivered via a nose cone. Body temperature was maintained at 37.0±0.5° C. using a thermoregulatory heating unit with homeothermic blanket (HB 101/2 RS, Letica Scientific Instruments). Heparin (40 IU, i.v.) was given just before the operation to prevent possible complications caused by blood coagulation. The right common carotid artery was exposed through a midline ventral cervical incision, and carefully separated from the adjacent sympathetic nerves under a stereomicroscope. The common carotid artery and internal carotid artery were then clamped with microvascular clips. The external carotid artery was ligated distally with a nylon suture and the artery was cut for induction of suture. A heparinized nylon suture (Ø0.28 mm, rounded tip) was introduced into the stump of the external carotid artery, the internal carotid artery clip was removed, and the suture was advanced into the internal carotid artery until it passed beyond the origin of the middle cerebral artery. After occlusion for 90 min, the suture was removed to allow reperfusion in the middle cerebral artery territory. The stump of the external carotid artery was electrocoagulated and the common carotid artery clip was removed. The cervical incision was closed with silk sutures after the application of 2% lidocain gel (Xylocaln® 2%, Astra Finland). In sham-operated rats, the right common carotid artery was exposed and the external carotid artery was electrocoagulated without introducing the filament into the internal carotid artery. Animals were given 0.9% NaCl (i.p.) during the first-post-operative days (days 0 and 1). They were housed singly in a Macrolon cage.
JTP-4819 was dissolved in sterile saline. The drug was injected 1 ml/kg intraperitoneally (i.p.). […] On the testing day 2, the drug was injected after the rats were tested in a limb placing test and assigned to groups. On days 3-14, the rats were treated even if they were not tested in a limb placing test Table 1). In those days (6, 8, 10, 12, 13), the rats were injected in the afternoon, about 24 hours after the preceding injection. […]
On the second day after operation, behavioral deficits of rats were assessed by using a limb-placing test (De Ryck et al., 1989). […]

O=C(CO)[C@@H]1CCCN1C(=O)[C@@H]1CCCN1C(=O)NCc1ccccc1 [JTP-4819]
cognition effects [1]: cognition improving effects
difference in limb-placing test between JTP-4819 and control groups ([2]; 1 μmol/kg i.p. daily, from day 5 to day 17 after ischemia): significant difference (p<0.05)
difference in limb-placing test between JTP-4819 and control groups ([2]; 9 μmol/kg i.p. daily, on day 3 and 9): significant difference (p<0.05)
recovery in limb-placing score as compared to vehicle treated rats (FIG. 1) ([2]; 0.9 or 9.0 μmol/kg intraperitoneally, especially the lower dose, day 5-17): augmented recovery
recovery in the use of limbs ([2]; daily systemic administration started after unilateral focal forebrain ischemia, rats): enhanced the recovery in the use of limbs
limb-placing test effect after the discontinuation of drug administration ([2]; lower dose of JTP-4819 (1 μmol/kg i.p.), after treatment days 2-14): amelioration effect also was seen
